Tested on: primary CLL cells
Test: tetrazolium-based (MTS) cell viability assay on fresh primary CLL cells
Design: species or system human
Details: 10 nM to 10 μM, 3 days
Excerpt: The viability data were normalized to untreated controls and were used to calculate IC50 values.

## CCS(=O)(=O)N1CCN(c2ccc(Nc3ncc(C(N)=O)c(NC4CC4)n3)cc2)CC1 [Compound 2, 4-(cyclopropylamino)-2-(4-(4-(ethylsulfonyl)piperazin-1-yl)phenylamino)pyrimidine-5-carboxamide]
  single agent activity in CLL: single agent activity
